According to patent US9802997B2, “Peptides and combination of peptides for use in immunotherapy against various tumors” (immatics biotechnologies GmbH, priority 2015, dated 2017):

Key:
[1] = test system: CD8+ T cells of healthy HLA-A*02 donors; test: In vitro immunogenicity: in vitro T-cell priming with aAPCs loaded with peptide/MHC complexes and anti-CD28 antibody, pMHC multimer readout; assay type: cell-based, human; settings: HLA-A*02 restricted peptides; percentage of positive wells among evaluable
Description: In order to obtain information regarding the immunogenicity of the TUMAPs of the present invention, the inventors performed investigations using an in vitro T-cell priming assay based on repeated stimulations of CD8+ T cells with artificial antigen presenting cells (aAPCs) loaded with peptide/MHC complexes and anti-CD28 antibody.
In order to perform in vitro stimulations by artificial antigen presenting cells loaded with peptide-MHC complex (pMHC) and anti-CD28 antibody, the inventors first isolated CD8+ T cells from fresh HLA-A*02 leukapheresis products via positive selection using CD8 microbeads (Miltenyi Biotec, Bergisch-Gladbach, Germany) of healthy donors obtained from the University clinics Mannheim, Germany, after informed consent. PBMCs and isolated CD8+ lymphocytes were incubated in T-cell medium (TCM) until use consisting of RPMI-Glutamax (Invitrogen, Karlsruhe, Germany) supplemented with 10% heat inactivated human AB serum (PAN-Biotech, Aidenbach, Germany), 100 U/ml Penicillin/100 μg/ml Streptomycin (Cambrex, Cologne, Germany), 1 mM sodium pyruvate (CC Pro, Oberdorla, Germany), 20 μg/ml Gentamycin (Cambrex). 2.5 ng/ml IL-7 (PromoCell, Heidelberg, Germany) and 10 U/ml IL-2 (Novartis Pharma, Nürnberg, Germany) were also added to the TCM at this step. Generation of pMHC/anti-CD28 coated beads, T-cell stimulations and readout was performed in a highly defined in vitro system using four different pMHC molecules per stimulation condition and 8 different pMHC molecules per readout condition.
The purified co-stimulatory mouse IgG2a anti human CD28 Ab 9.3 (Jung et al., 1987) was chemically biotinylated using Sulfo-N-hydroxysuccinimidobiotin as recommended by the manufacturer (Perbio, Bonn, Germany). Beads used were 5.6 μm diameter streptavidin coated polystyrene particles (Bangs Laboratories, Illinois, USA).
pMHC used for positive and negative control stimulations were A*0201/MLA-001 (peptide […] (SEQ ID NO. 289) from modified Melan-A/MART-1) and A*0201/DDX5-001 ([…] from DDX5, SEQ ID NO. 290), respectively.
800.000 beads/200 μl were coated in 96-well plates in the presence of 4×12.5 ng different biotin-pMHC, washed and 600 ng biotin anti-CD28 were added subsequently in a volume of 200 μl. Stimulations were initiated in 96-well plates by co-incubating 1×10^6 CD8+ T cells with 2×10^5 washed coated beads in 200 μl TCM supplemented with 5 ng/ml IL-12 (PromoCell) for 3 days at 37° C. Half of the medium was then exchanged by fresh TCM supplemented with 80 U/ml IL-2 and incubating was continued for 4 days at 37° C. This stimulation cycle was performed for a total of three times. For the pMHC multimer readout using 8 different pMHC molecules per condition, a two-dimensional combinatorial coding approach was used as previously described (Andersen et al., 2012) with minor modifications encompassing coupling to 5 different fluorochromes. Finally, multimeric analyses were performed by staining the cells with Live/dead near IR dye (Invitrogen, Karlsruhe, Germany), CD8-FITC antibody clone SK1 (BD, Heidelberg, Germany) and fluorescent pMHC multimers. For analysis, a BD LSRII SORP cytometer equipped with appropriate lasers and filters was used. Peptide specific cells were calculated as percentage of total CD8+ cells. Evaluation of multimeric analysis was done using the FlowJo software (Tree Star, Oregon, USA). In vitro priming of specific multimer+CD8+ lymphocytes was detected by comparing to negative control stimulations.

HLA-A*02:01 = HLA-A*02:01 (Homo sapiens, UniProt P04439, D140Y/D185E/D98H/E176V/E277Q/G131W/G231S/I119V/I121R/I166T/I218V/L300P/L318F/N151K/N90K/P208A/P217A/Q86G/Q94H/R138H/R169H/T345S); test: MHC binding assay (UV-ligand exchange, beta2m ELISA); settings: binding to HLA-A*02:01, β2m ELISA
Summary of the method: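 Peptide–MHC complexes formed by UV-ligand exchange, cleaving a UV-sensitive peptide so the test peptide can bind. Exchange yield measured by ELISA: complexes captured on streptavidin-coated wells, diluted 100-fold, detected with HRP anti-β2m (1 h, 37 °C) and TMB at 450 nm, against refolded HLA-A*02:01/MLA-001 standards (15-500 ng/ml).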

## 17 (GLLPSAESIKL; listed as Homo sapiens) [compound 17]
[1]
  Wells positive [%]: + (<20% = +)
HLA-A*02:01
  Peptide exchange (MHC class I binding score, peptide exchange yield): ++++ (≧75% = ++++)

## 89 (SLAETIFIV; listed as Homo sapiens) [compound 89]
[1]
  Wells positive [%]: + (<20% = +)
HLA-A*02:01
  Peptide exchange (MHC class I binding score, peptide exchange yield): +++ (≧50 = +++)

## 102 (GLYPVTLVGV; listed as Homo sapiens) [compound 102]
[1]
  Wells positive [%]: + (<20% = +)
HLA-A*02:01
  Peptide exchange (MHC class I binding score, peptide exchange yield): +++ (≧50 = +++)

## 255 (FLMKNSDLYGA; listed as Homo sapiens) [compound 255]
[1]
  Wells positive [%]: + (<20% = +)
HLA-A*02:01
  Peptide exchange (MHC class I binding score, peptide exchange yield): +++ (≧50 = +++)

## 97 (KLFEKSTGL; listed as Homo sapiens) [compound 97]
[1]
  Wells positive [%]: + (<20% = +)
HLA-A*02:01
  Peptide exchange (MHC class I binding score, peptide exchange yield): +++ (≧50 = +++)

## 242 (KLQEEIPVL; listed as Homo sapiens) [compound 242]
[1]
  Wells positive [%]: + (<20% = +)
HLA-A*02:01
  Peptide exchange (MHC class I binding score, peptide exchange yield): +++ (≧50 = +++)

## 260 (ALNESLVEC; listed as Homo sapiens) [compound 260]
[1]
  Wells positive [%]: + (<20% = +)
HLA-A*02:01
  Peptide exchange (MHC class I binding score, peptide exchange yield): +++ (≧50 = +++)

## 35 (VIIKGLEEI; listed as Homo sapiens) [compound 35]
[1]
  Wells positive [%]: + (<20% = +)
HLA-A*02:01
  Peptide exchange (MHC class I binding score, peptide exchange yield): ++ (≧20% = ++)

## 101 (SLLEVNEASSV; listed as Homo sapiens) [compound 101]
[1]
  Wells positive [%]: + (<20% = +)
HLA-A*02:01
  Peptide exchange (MHC class I binding score, peptide exchange yield): +++ (≧50 = +++)

## 77 (ALYGNVQQV; listed as Homo sapiens) [compound 77]
[1]
  Wells positive [%]: + (<20% = +)
HLA-A*02:01
  Peptide exchange (MHC class I binding score, peptide exchange yield): +++ (≧50 = +++)

## 236 (KMSELQTYV; listed as Homo sapiens) [compound 236]
[1]
  Wells positive [%]: + (<20% = +)
HLA-A*02:01
  Peptide exchange (MHC class I binding score, peptide exchange yield): +++ (≧50 = +++)

## 246 (ALAGIVTNV; listed as Homo sapiens) [compound 246]
[1]
  Wells positive [%]: + (<20% = +)
HLA-A*02:01
  Peptide exchange (MHC class I binding score, peptide exchange yield): +++ (≧50 = +++)

## 257 (KLIDHQGLYL; listed as Homo sapiens) [compound 257]
[1]
  Wells positive [%]: + (<20% = +)
HLA-A*02:01
  Peptide exchange (MHC class I binding score, peptide exchange yield): +++ (≧50 = +++)

## 267 (YLLDMPLWYL; listed as Homo sapiens) [compound 267]
[1]
  Wells positive [%]: + (<20% = +)
HLA-A*02:01
  Peptide exchange (MHC class I binding score, peptide exchange yield): +++ (≧50 = +++)

## 254 (ALGDKFLLRV; listed as Homo sapiens) [compound 254]
[1]
  Wells positive [%]: + (<20% = +)
HLA-A*02:01
  Peptide exchange (MHC class I binding score, peptide exchange yield): ++ (≧20% = ++)

## 264 (TLHDQVHLL; listed as Homo sapiens) [compound 264]
[1]
  Wells positive [%]: + (<20% = +)
HLA-A*02:01
  Peptide exchange (MHC class I binding score, peptide exchange yield): ++ (≧20% = ++)

## 157 (ILQDGQFLV; listed as Homo sapiens) [compound 157]
[1]
  Wells positive [%]: + (<20% = +)
HLA-A*02:01
  Peptide exchange (MHC class I binding score, peptide exchange yield): ++ (≧20% = ++)

## 4 (VLFGELPAL; listed as Homo sapiens) [compound 4]
[1]
  Wells positive [%]: + (<20% = +)
HLA-A*02:01
  Peptide exchange (MHC class I binding score, peptide exchange yield): +++ (≧50 = +++)

## 9 (SLITGQDLLSV; listed as Homo sapiens) [compound 9]
[1]
  Wells positive [%]: + (<20% = +)
HLA-A*02:01
  Peptide exchange (MHC class I binding score, peptide exchange yield): +++ (≧50 = +++)

## 50 (ILLSVLHQL; listed as Homo sapiens) [compound 50]
[1]
  Wells positive [%]: + (<20% = +)
HLA-A*02:01
  Peptide exchange (MHC class I binding score, peptide exchange yield): +++ (≧50 = +++)

## 39 (YLEDGFAYV; listed as Homo sapiens) [compound 39]
[1]
  Wells positive [%]: ++++ (>=70% = ++++)
HLA-A*02:01
  Peptide exchange (MHC class I binding score, peptide exchange yield): +++ (≧50 = +++)

## 233 (SLFESLEYL; listed as Homo sapiens) [compound 233]
[1]
  Wells positive [%]: + (<20% = +)
HLA-A*02:01
  Peptide exchange (MHC class I binding score, peptide exchange yield): +++ (≧50 = +++)

## 121 (ALYVQAPTV; listed as Homo sapiens) [compound 121]
[1]
  Wells positive [%]: + (<20% = +)
HLA-A*02:01
  Peptide exchange (MHC class I binding score, peptide exchange yield): ++ (≧20% = ++)

## 66 (AMFPDTIPRV; listed as Homo sapiens) [compound 66]
[1]
  Wells positive [%]: + (<20% = +)
HLA-A*02:01
  Peptide exchange (MHC class I binding score, peptide exchange yield): ++ (≧20% = ++)

## 14 (YTFSGDVQL; listed as Homo sapiens) [compound 14]
[1]
  Wells positive [%]: + (<20% = +)
HLA-A*02:01
  Peptide exchange (MHC class I binding score, peptide exchange yield): +++ (≧50 = +++)
